Results as given in US20150290227A1, “USE OF HAMAMELITANNIN FOR THE TREATMENT OF STAPHYLOCOCCAL INFECTIONS” (priority 2006, published 2015).
Several values for one entry are separate records, joined by “and”; a condition that tells them apart may be missing. Identical values can stand only once.

How the values were obtained:
RNAIII = RNAIII production in S. aureus cells containing rnaiii::blaZ fusion construct, measured as β-lactamase activity; assay type: cell-based; details: for inhibition of RNAIII synthesis (in words): 0-50 μg
Protocol: RNAIII levels were determined as β-lactamase activity (reporter gene product) and denoted as Vmax.
To test if hamamelitannin is a quorum sensing inhibitor and thus suppresses RNAIII synthesis, 2×10^7 cells were incubated with increasing amounts (0-50 μg) of hamamelitannin (or RIP). RNAIII levels were measured as β-lactamase activity as a reporter gene product by the addition of nitrocefin as substrate. […] Hamamelitannin (2′,5-di-O-galloyl hamamelose) was purchased from Chromadex, Inc. (93% purity, as assessed by HPLC by the manufacturer). Hamamelitannin was dissolved in water at 25 mg/ml and stored at −70° C. until use.

MRSE [1] = assay: Rat graft-associated infection, bacteria pre-incubated with agent, MRSE challenge; assay type: in vivo, S. epidermidis; details: for amount that could prevent an infection: infection caused by 2×10^7 CFU MRSE, rat graft
Protocol: (§1) FIG. 6 is a graph presentation of the effectiveness of bacterial graft-associated infection inhibition by hamamelitannin and RIP against challenge by methicillin resistant S. aureus and S. epidermidis (MRSA and MRSE) using pre-incubation.
(§2) To measure the amount of hamamelitannin necessary to prevent device-associated infections, bacteria (2×10^7 MRSA or MRSE) were pre-incubated with increasing amounts of hamamelitannin for 30 min at room temperature. Grafts were implanted and rats were challenged with the pre-incubated bacteria. Seven days later the graft was removed and bacterial load determined. […] No bacteria was found when either MRSA or MRSE were pre-incubated with >20 μg hamamelitannin.
(§3) In the testing reflected in FIG. 6 and summarized above, to ascertain the amount of hamamelitannin/bacteria necessary to potentially prevent device-associated infections, bacteria (2×10^7 MRSE or MRSA in 150 μl saline) were pre-incubated with hamamelitannin (0, 0.5, 10, 20, 30, 50 μg) for 30 min at room temperature, as noted. Grafts were implanted and rats were challenged with the pre-incubated bacteria. Seven days later the graft was removed and bacterial load determined. […] When the bacteria was treated with 0.5, 10, 20, 30 or 50 μg hamamelitannin, MRSE load was 8.4×10^3±2.2×10^3 for 0.5 μg and 8.7×10^1±6.6×10^1 for 10 μg.

[2] = tested on: cell damage induced by peroxides or UVB radiation; details: cited from earlier work
[3] = tested on: tumor necrosis factor α-mediated endothelial cell death; details: cited from earlier work
MRSA [4] = assay: Rat graft-associated infection, bacteria pre-incubated with agent, MRSA challenge; assay type: in vivo, S. aureus; details: for amount that could prevent an infection: infection caused by 2×10^7 CFU MRSA, rat graft
Protocol: as §1, §2, §3

MRSE [5] = assay: Rat graft-associated infection, local treatment (graft soak), MRSE challenge; assay type: in vivo, S. epidermidis; details: for bacterial load on graft: day 7
Protocol: (§4) FIG. 7 is a graph presentation of the effectiveness of bacterial graft-associated infection inhibition by hamamelitannin against challenge by MRSA and MRSE using local treatment (graft soak).
(§5) To test if hamamelitannin could inhibit graft-associated infection, grafts (1 cm^2 collagen coated Dacron) were soaked for 1 h in increasing hamamelitannin concentrations. The graft was then implanted into the animal, and bacteria injected onto the graft. Seven days later the graft was removed and bacteria on the graft counted.

S. aureus strain = assay: Bacterial growth in vitro / MIC; assay type: cell-based
S. aureus cells = assay: S. aureus cell attachment in vitro in polystyrene plates; assay type: cell-based; details: for reduction of cell attachment (in words): 0-50 μg, 3 hrs at 37° C., OD 595 nm; for amount most effective in reducing cell attachment: converted dose
Protocol: Attached cells were stained and OD595nm was determined.
To test for the effect of hamamelitannin on bacterial attachment in vitro, S. aureus cells were incubated with 0-50 μg hamamelitannin or RIP in polystyrene plates for 3 hrs at 37° C. Adherent bacteria were stained with methylene blue and OD determined at 595 nm.

MRSA [6] = assay: Rat graft-associated infection, local treatment (graft soak), MRSA challenge; assay type: in vivo, S. aureus
Protocol: as §4, §5

Question: Which results are given for O=C(OC[C@H]1OC(O)[C@@](O)(COC(=O)c2cc(O)c(O)c(O)c2)[C@@H]1O)c1cc(O)c(O)c(O)c1 (stereo partly drawn) [hamamelitannin, 2′,5-di-O-galloyl hamamelose]?
Answer: minimal dose inhibiting RNAIII production (RNAIII): 0.2 picomoles per 1000 bacteria; inhibition of RNAIII synthesis (in words) (RNAIII; 2×10^7 cells, 2.5 hrs): inhibits RNAIII synthesis in a dose dependent manner; dose most effective in inhibiting RNAIII synthesis (RNAIII; 2×10^7 cells, 2.5 hrs): > 2 μg/2×10^7 bacteria; amount that could prevent an infection (MRSE [1]): 10 µg; amount at which no bacteria was found on graft (MRSE [1]; rat, 2×10^7 MRSE pre-incubated 30 min, graft removed after seven days): > 20 µg; MRSE load on graft (MRSE [1]; rat, 2×10^7 MRSE pre-incubated with 0.5 μg, day 7): 8.4×10^3±2.2×10^3 CFU/ml; MRSE load on graft (MRSE [1]; rat, 2×10^7 MRSE pre-incubated with 10 μg, day 7): 8.7×10^1±6.6×10^1 CFU/ml; MRSE graft infection (in words) (MRSE [1]; rat, 2×10^7 MRSE pre-incubated with 20, 30 or 50 μg, day 7): No sign of infection; minimum concentration with high protective activity against cell damage [2]: 50 µM; concentration inhibiting tumor necrosis factor α-mediated endothelial cell death [3]: less than 100 uM; amount that could prevent an infection (MRSA [4]): 10 µg; amount at which no bacteria was found on graft (MRSA [4]; rat, 2×10^7 MRSA pre-incubated 30 min, graft removed after seven days): > 20 µg; MRSA load on graft (MRSA [4]; rat, 2×10^7 MRSA pre-incubated with 0.5 μg, day 7): 8.8×10^3±2.3×10^3 CFU/mL; MRSA load on graft (MRSA [4]; rat, 2×10^7 MRSA pre-incubated with 10 μg, day 7): 3.6×10^2±0.8×10^2 CFU/mL; MRSA graft infection (in words) (MRSA [4]; rat, 2×10^7 MRSA pre-incubated with 20, 30 or 50 μg, day 7): No sign of infection; bacterial load on graft (MRSE [5]; MRSE, graft pre-soaked with 0.5 mg/L): 9.0×10^4±2.6×10^4 CFU/mL; bacterial load on graft (MRSE [5]; MRSE, graft soaked with 10 mg/L): 2.1×10^3±0.2×10^3 CFU/mL; bacterial load on graft (MRSE [5]; MRSE, graft soaked with 30 or 50 mg/L): < 10 CFU/mL; pre-soak concentration at which grafts show no signs of infection (MRSE [5]; challenge 2×10^7, MRSE): at least 30 mg/L and ~60 uM; decrease in bacterial load versus untreated control (in words) (MRSE [5]; grafts presoaked 1 h, 0-50 mg/L, MRSE): Significant (p<0.05) decrease in bacterial load; concentration affecting bacterial growth in vitro (no effect even at concentrations as high as) (S. aureus strain; S. aureus): > 2.5 mM per 1000 bacteria; highest concentration without effect on growth relative to the MIC of ampicillin (S. aureus strain; same S. aureus strain): 13,000 times; reduction of cell attachment (in words) (S. aureus cells): reduced cell attachment in a dose-dependent manner; amount most effective in reducing cell attachment (S. aureus cells): 0.4 picomoles/10^3 bacteria; bacterial load on graft (in words) (MRSA [6]; MRSA, graft pre-soaked in 30 or 50 mg/L, day 7): no bacterial load was detected; bacterial load on graft (MRSA [6]; MRSA, graft soaked with 0.5 mg/L, day 7): 9.3×10^4±2.8×10^4 CFU/mL; bacterial load on graft (MRSA [6]; MRSA, graft soaked with 10 mg/L, day 7): 2.6×10^3±0.3×10^3 CFU/mL; bacterial load on graft (MRSA [6]; MRSA, graft soaked with 20 mg/L, day 7): 3.7×10^1±1.1×10^1 CFU/mL; pre-soak concentration at which grafts show no signs of infection (MRSA [6]; challenge 2×10^7, MRSA): at least 30 mg/L and ~60 uM; decrease in bacterial load versus untreated control (in words) (MRSA [6]; grafts presoaked 1 h, 0-50 mg/L, MRSA): Significant (p<0.05) decrease in bacterial load

Question: With CC1(C)S[C@@H]2[C@H](NC(=O)[C@H](N)c3ccccc3)C(=O)N2[C@H]1C(=O)O [ampicillin, reference compound] as the compound, how does the “MIC of ampicillin (reference drug)” value (S. aureus strain; same S. aureus strain) read?
Answer: 0.2 uM per 1000 bacteria

Question: For “RIP: RNAIII-inhibiting peptide, sequence YSPWTNF, antagonist of RAP [reference compound]”, which “minimal dose inhibiting RNAIII production” value (RNAIII) is on record?
Answer: 0.5 picomoles per 1000 bacteria

Question: What about the “inhibition of RNAIII synthesis (in words)” value (RNAIII; 2×10^7 cells, 2.5 hrs) of the same compound?
Answer: inhibited RNAIII production in a dose dependent manner

Question: And the “dose most effective in inhibiting RNAIII synthesis” value (RNAIII; 2×10^7 cells, 2.5 hrs)?
Answer: 8 μg/2×10^7 bacteria

Question: What about the “dose most effective in inhibiting RNAIII synthesis” value (RNAIII; converted dose) of the same compound?
Answer: 0.5 picomoles/10^3 bacteria

Question: What about the “amount that could prevent an infection” value (MRSE [1]) of the same compound?
Answer: 10 µg

Question: And the “amount that could prevent an infection” value (MRSA [4])?
Answer: 10 µg

Question: And the “reduction of cell attachment (in words)” value (S. aureus cells)?
Answer: reduced cell attachment in a dose-dependent manner

Question: And the “amount most effective in reducing cell attachment” value (S. aureus cells)?
Answer: 0.4 picomoles/10^3 bacteria
